From patent publication US20250195513A1, “DEGRADATION OF IRAK4 BY CONJUGATION OF IRAK4 INHIBITORS WITH E3 LIGASE LIGAND AND METHODS OF USE” (BeiGene, Ltd., priority 2022, published 2025) come the findings set out here.

What all share (assay type): cell-based
For test [1], the target named is T1, IRAK4 (Homo sapiens, UniProt Q9NWZ3).
T1 construct: endogenous in cells; host or cells: Karpas299
T1 sequence (Q9NWZ3 1-460): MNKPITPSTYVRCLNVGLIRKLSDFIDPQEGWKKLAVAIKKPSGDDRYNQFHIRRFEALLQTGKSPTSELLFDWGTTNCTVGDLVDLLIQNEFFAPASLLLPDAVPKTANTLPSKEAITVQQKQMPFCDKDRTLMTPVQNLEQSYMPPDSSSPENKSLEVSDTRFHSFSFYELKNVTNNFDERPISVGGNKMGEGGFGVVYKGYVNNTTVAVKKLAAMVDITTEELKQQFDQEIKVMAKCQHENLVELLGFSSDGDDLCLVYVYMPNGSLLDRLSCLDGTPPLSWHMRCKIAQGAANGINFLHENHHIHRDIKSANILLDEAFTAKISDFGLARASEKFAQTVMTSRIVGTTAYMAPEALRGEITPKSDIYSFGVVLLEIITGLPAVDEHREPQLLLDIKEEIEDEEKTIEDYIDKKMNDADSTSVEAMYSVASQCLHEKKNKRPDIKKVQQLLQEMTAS
Description: IRAK4 Degradation Assay (Karpas299, HTRF/TR-FRET). The settings on record: Karpas-299 cells; for Dmax: maximum percentage of degradation. In a few lines: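 Compound potency as DC50 (IC50) came from four-parameter fits of percent IRAK4 degradation. IRAK4 was measured by HTRF (665/620 nm) in lysates of Karpas299 cells seeded at 0.2 million per well. Cells had been treated with compound dilutions for 5 or 24 h.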

Test [2] deals with TNF-α production in THP-1 cells. Description: TNF-α Production Assay in THP-1 Cells (LPS stimulated). The settings on record: Homo sapiens, THP-1, 24 h; for Emax: maximum inhibition, read-out: TNF-α (THP-1) 24 h IMax. As for the experimental part:
THP-1 cells maintained in RPMI 1640 medium (Thermo Scientific) supplemented with 10% FBS (Thermo Scientific), 100 units/mL penicillin and 0.1 mg/mL streptomycin (Thermo Scientific) were seeded into 96-well plates at the density of 0.2 million cells per well and then treated with compounds for 24 h. Lipopolysaccharide was subsequently added at the final concentration of 1 μg/mL for 24 h. Culture supernatant was collected for measurement of TNF-α concentration by a TR-FRET-based method (Degorce, François, et al. Current chemical genomics. 2009, 3: 22) as described by the manufacturer manual (Cisbio). FRET signals were measured using a PHERAstar FSX reader (BMG Labtech).

In test [3] the target is T1, IRAK4. Kind of test: IRAK4 Degradation Assay with Human Serum (Karpas299, HTRF/TR-FRET). The settings on record: Karpas-299 in human serum, 24 hrs treatment; for DC50: read-out: IRAK4 degradtion with human serum assay DC50; for Dmax: read-out: IRAK4 degradtion with human serum assay Dmax (%). In a few lines:
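Remaining IRAK4 measured by TR-FRET immunoassay on lysates of Karpas299 cells exposed 24 h to compound dilution series in human serum AB. DC50 derived from a Hill-slope fit of % degradation versus concentration.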

The mark [4] stands for this setting: 24 h treatment, read-out: IRAK4 in Karpas-299 (24 h) Dmax (%).
The mark [5] stands for this setting: 24 h treatment, read-out: IRAK4 in Karpas-299 (24 h) DC50.
[6] abbreviates: 5 h treatment, read-out: IRAK4 in Karpas-299 (5 h) Dmax (%).
Setting [7] is: 5 h treatment, read-out: IRAK4 in Karpas-299 (5 h) DC50.

Regarding `C[C@@H]1CN(C2CN(c3cc(F)c([C@H]4CCC(=O)NC4=O)c(F)c3)C2)CCN1[C@H]1CC[C@H](n2cc3cc(NC(=O)c4ccc5cc(C#N)cnn45)c(C(C)(C)O)cc3n2)CC1` [Example 302, 3-cyano-N-(2-((1R,4r)-4-((R)-4-(1-(4-((R)-2,6-dioxopiperidin-3-yl)-3,5-difluorophenyl)azetidin-3-yl)-2-methylpiperazin-1-yl)cyclohexyl)-6-(2-hydroxypropan-2-yl)-2H-indazol-5-yl)pyrrolo[1,2-b]pyridazine-7-carboxamide], the Dmax on IRAK4 [1] (setting [4]) turned out to be 98%; at IRAK4 [3], 96%. For the same compound, the DC50 at IRAK4 [1] (setting [5]) was 0.8 nM; on IRAK4 [3] it was 8.8 nM. In test [2], this compound yielded an IC50 of 38 nM. Moreover, the Emax in test [2] was 84%.
In the case of `CC(C)(O)c1cc2nn([C@H]3CC[C@H](N4CCN(C(=O)CNc5cc(F)c([C@H]6CCC(=O)NC6=O)c(F)c5)CC4)CC3)cc2cc1NC(=O)c1ccc2cc(C#N)cnn12` [Example 193, 3-cyano-N-(2-((1R,4r)-4-(4-((4-((R)-2,6-dioxopiperidin-3-yl)-3,5-difluorophenyl)glycyl)piperazin-1-yl)cyclohexyl)-6-(2-hydroxypropan-2-yl)-2H-indazol-5-yl)pyrrolo[1,2-b]pyridazine-7-carboxamide], at IRAK4 [1] (setting [4]), the Dmax came out at 97%. Moreover, the DC50 at IRAK4 [1] (setting [5]) came to 0.4 nM. In test [2], the midpoint of inhibition, the IC50, lay at 20 nM and the Emax was found to be 58%. Further, on IRAK4 [3], the DC50 was 5.8 nM and the Dmax was determined as 102%.
As to `COC[C@H]1CN([C@H]2CC[C@H](n3cc4cc(NC(=O)c5ccc6cc(C#N)cnn56)c(C(C)(C)O)cc4n3)CC2)CCN1C(=O)C1CN(c2cc(F)c([C@H]3CCC(=O)NC3=O)c(F)c2)C1` [Example 185, 3-cyano-N-(2-((1R,4r)-4-((R)-4-(1-(4-((R)-2,6-dioxopiperidin-3-yl)-3,5-difluorophenyl)azetidine-3-carbonyl)-3-(methoxymethyl)piperazin-1-yl)cyclohexyl)-6-(2-hydroxypropan-2-yl)-2H-indazol-5-yl)pyrrolo[1,2-b]pyridazine-7-carboxamide], the Dmax on IRAK4 [1] (setting [4]) was determined as 96%. For the same compound, the DC50 at IRAK4 [1] (setting [5]) came out at 0.7 nM. Further, in test [2], the IC50 worked out at 12 nM and the Emax was determined as 91%. At IRAK4 [3], the DC50 was 14 nM and the Dmax was determined as 100%.
Consider `C[C@H]1CN([C@H]2CC[C@H](n3cc4cc(NC(=O)c5ccc6cc(C#N)cnn56)c(C(C)(C)O)cc4n3)CC2)CCN1C(=O)C1CN(c2cc(F)c([C@H]3CCC(=O)NC3=O)c(F)c2)C1` [Example 311, 3-cyano-N-(2-((1S,4r)-4-((S)-4-(1-(4-((R)-2,6-dioxopiperidin-3-yl)-3,5-difluorophenyl)azetidine-3-carbonyl)-3-methylpiperazin-1-yl)cyclohexyl)-6-(2-hydroxypropan-2-yl)-2H-indazol-5-yl)pyrrolo[1,2-b]pyridazine-7-carboxamide], for which the figures for the Dmax at IRAK4 [1] (setting [4]) and on IRAK4 [3] were 98% and 99%, respectively. Besides, the DC50 on IRAK4 [1] (setting [5]) amounted to 0.8 nM; at IRAK4 [3], 15 nM. In test [2], this compound registered an IC50 of 29 nM. In test [2], the Emax turned out to be 91%.
As to `CC(C)(O)c1cc2nn(C3CCN([C@H]4CCN(CCc5cc(F)c([C@H]6CCC(=O)NC6=O)c(F)c5)CC4(F)F)CC3)cc2cc1NC(=O)c1ccc2cc(C#N)cnn12` [Example 339, 3-cyano-N-(2-((S)-1′-(4-((R)-2,6-dioxopiperidin-3-yl)-3,5-difluorophenethyl)-3′,3′-difluoro-[1,4′-bipiperidin]-4-yl)-6-(2-hydroxypropan-2-yl)-2H-indazol-5-yl)pyrrolo[1,2-b]pyridazine-7-carboxamide], the Dmax on IRAK4 [1] (setting [4]) turned out to be 95%. Further, the DC50 at IRAK4 [1] (setting [5]) turned out to be 2.5 nM. In addition, in test [2], 122 nM corresponded to half-maximal inhibition (IC50) and the Emax was 67%. Also, at IRAK4 [3], the DC50 worked out at 20 nM and the Dmax came to 99%.
Regarding `CC(C)(O)c1cc2nn(C34CC(N5CCN(CC6CN(c7cc(F)c(N8CCC(=O)NC8=O)c(F)c7)C6)CC5)(C3)C4)cc2cc1NC(=O)c1ccc2cc(C#N)cnn12` [Example 354, 3-cyano-N-(2-(3-(4-((1-(4-(2,4-dioxotetrahydropyrimidin-1(2H)-yl)-3,5-difluorophenyl)azetidin-3-yl)methyl)piperazin-1-yl)bicyclo[1.1.1]pentan-1-yl)-6-(2-hydroxypropan-2-yl)-2H-indazol-5-yl)pyrrolo[1,2-b]pyridazine-7-carboxamide], the Dmax on IRAK4 [1] (setting [4]) came out at 98%. For the same compound, the DC50 at IRAK4 [1] (setting [5]) turned out to be 2.4 nM. Also, in test [2], the midpoint of inhibition, the IC50, lay at 44 nM and the Emax was 96%. In addition, at IRAK4 [3], the 50% degradation concentration (DC50) was determined as 10 nM and the Dmax amounted to 93%.
In the case of `CC(C)(O)c1cc2nn([C@H]3CC[C@H](N4CCN(C(=O)C5CN(c6cc(F)c(N7CCC(=O)NC7=O)c(F)c6)C5)CC4)CC3)cc2cc1NC(=O)c1ccc2cc(C#N)cnn12` [Example 105, 3-cyano-N-(2-((1r,4r)-4-(4-(1-(4-(2,4-dioxotetrahydropyrimidin-1(2H)-yl)-3,5-difluorophenyl)azetidine-3-carbonyl)piperazin-1-yl)cyclohexyl)-6-(2-hydroxypropan-2-yl)-2H-indazol-5-yl)pyrrolo[1,2-b]pyridazine-7-carboxamide], the values for the Dmax on IRAK4 [1] (setting [6]), on IRAK4 [1] (setting [4]) and at IRAK4 [3] were 97%, 98% and 98%, respectively. Further, the DC50 on IRAK4 [1] (setting [7]) amounted to 3.1 nM; at IRAK4 [1] (setting [5]), 0.7 nM; on IRAK4 [3] it was 21 nM. Besides, half-maximal inhibition in test [2] (IC50) was put at 36 nM. Further, the Emax in test [2] stood at 78%.
With `CC(C)(O)c1cc2nn([C@H]3CC[C@H](N4CCN(C(=O)[C@@H]5CCN(c6cc(F)c([C@H]7CCC(=O)NC7=O)c(F)c6)C5)CC4)CC3)cc2cc1NC(=O)c1ccc2cc(C#N)cnn12` [Example 181, 3-cyano-N-(2-((1R,4r)-4-(4-((R)-1-(4-((R)-2,6-dioxopiperidin-3-yl)-3,5-difluorophenyl)pyrrolidine-3-carbonyl)piperazin-1-yl)cyclohexyl)-6-(2-hydroxypropan-2-yl)-2H-indazol-5-yl)pyrrolo[1,2-b]pyridazine-7-carboxamide], the Dmax at IRAK4 [1] (setting [6]) was found to be 97%; at IRAK4 [1] (setting [4]), 97%; at IRAK4 [3] it was 101%. For the same compound, the DC50 at IRAK4 [1] (setting [7]) is 2 nM; on IRAK4 [1] (setting [5]), 0.4 nM; on IRAK4 [3], 11 nM. Further, the 50% inhibitory concentration (IC50) in test [2] is 30 nM. Also, the Emax in test [2] came to 69%.
For `COc1cc(N2CC(C(=O)N3CCN([C@H]4CC[C@H](n5cc6cc(NC(=O)c7ccc8cc(C#N)cnn78)c(C(C)(C)O)cc6n5)CC4)CC3)C2)ccc1[C@H]1CCC(=O)NC1=O` [Example 259], the Dmax at IRAK4 [1] (setting [4]) was 98%. In addition, the DC50 on IRAK4 [1] (setting [5]) is 0.8 nM. In test [2], the IC50 is 19 nM and the Emax was 90%. Also, on IRAK4 [3], the DC50 came to 6.3 nM and the Dmax was found to be 101%.
On to `CC(C)(O)c1cc2nn([C@H]3CC[C@H](N4CCN(CCNc5cc(F)c([C@H]6CCC(=O)NC6=O)c(F)c5)CC4)CC3)cc2cc1NC(=O)c1ccc2cc(C#N)cnn12` [Example 194, 3-cyano-N-(2-((1R,4r)-4-(4-(2-((4-((R)-2,6-dioxopiperidin-3-yl)-3,5-difluorophenyl)amino)ethyl)piperazin-1-yl)cyclohexyl)-6-(2-hydroxypropan-2-yl)-2H-indazol-5-yl)pyrrolo[1,2-b]pyridazine-7-carboxamide], for which the Dmax on IRAK4 [1] (setting [6]) came to 93%; at IRAK4 [1] (setting [4]), 98%; on IRAK4 [3], 96%. Further, the DC50 on IRAK4 [1] (setting [7]) worked out at 1.6 nM; at IRAK4 [1] (setting [5]) it was 1.1 nM; at IRAK4 [3], 6.2 nM. This compound showed an IC50 in test [2] of 30 nM. Also, the Emax in test [2] was determined as 53%.
Turning to `COc1cc(N2CC(C(=O)N3CCN([C@H]4CC[C@H](n5cc6cc(NC(=O)c7ccc8cc(C#N)cnn78)c(C(C)(C)O)cc6n5)CC4)CC3)C2)ccc1N1CCC(=O)NC1=O` [Example 269], on IRAK4 [1] (setting [4]), the Dmax worked out at 97%. The DC50 at IRAK4 [1] (setting [5]) was determined as 1.8 nM. Further, in test [2], half-maximal inhibition (IC50) required 24 nM and the Emax is 89%. Further, on IRAK4 [3], the DC50 was 11 nM and the Dmax was 94%.
